Experimental data reported in patent US9983196B2, “Compositions and methods for optimizing drug hydrophobicity and drug delivery to cells” (Bioelastics, Inc., priority 2009, dated 2018).

How the values were obtained:
[1] = acid-base titration of elastic-contractile model proteins (pKa shift, Hill plot); type: physicochemical; conditions: for ΔGap / ΔpKa: chemically-synthesized negatively-charged polymers of FIG. 3
[2] = controlled release of charged drug from oppositely charged ECMP; type: physicochemical; conditions: release of Leu-enkephalin amide (LEA+); for zero order release level per day: after burst release, constant surface area
Description: For controlled release of pharmaceuticals, positively charged drugs packaged in negatively charged ECMP result in zero-order release. Once the rate of drug release and its ΔGap have been determined for one member of a related family of ECMP, the release rates for another member of the family can be calculated from the acid-base titration data. […] Thus, the thermodynamics of model protein hydration can be determined for a designed ECMP with a known release rate and used to calculate the release rates of a drug from a related ECMP for which only the acid-base titration data has been determined.
FIG. 3 is a plot showing controlled release of positively charged Leu-enkephalin amide (H+-Tyr-Gly-Gly-Phe-Leu-NH2, (SEQ ID NO:6), LEA+) using chemically-synthesized, negatively-charged polymers with designed increases in hydrophobicity giving ΔpKa values of 0.9, 1.3, and 2.2 and ΔGap values of 1.2, 1.8, and 3.0 kcal/mol-E, respectively. After burst release due to 50% excess drug over polymer sites, a constant surface area maintains zero order release levels per day continuing at 4.7 μmole for 25 days, 2.7 μmole for 30 days, and 1.9 μmole for 70 days, respectively. The amino acid sequences from top to bottom are: SEQ ID NO:12, SEQ ID NO:13 and SEQ ID NO:14.
FIG. 5 is a pair of graphs of release profiles showing lower rates of drug release as n of nF increases, that is, as increasing numbers of Val (V) residues are replaced by Phe (F) residues using the series of Lys(K)/Phe(F)-containing model proteins of Table 3 with Φ=K. As the negatively-charged drug is added to the soluble positively-charged model protein phase separation occurs. Drug is added to a 50% excess, which is responsible for the burst release. A. Dexamethasone-phosphate release curves and B. Betamethasone-phosphate release curves.

[3] = cited from earlier work; for ΔG°HA(GχGVP): reference GGGVP = 0; for ΔG°HA(GχGVP) (from graph): Tt used to obtain value from experimental sigmoid curve of Tt versus ΔG°HA; for ΔG°HA(GχGVP) (data within parentheses): microbial preparations of poly(30 mers), n ≈ 40
[4] = cited from earlier work; for Tt: guest residue χ in poly[fχ(GχGVP),fv(GVGVP)], extrapolated to fχ=1, some cells marked (Tt); for Tt (data within parentheses): microbial preparations of poly(30 mers) (GVGVP GVGVP GχGVP GVGVP GVGVP GVGVP)n, n ≈ 40
[5] = Φ = E (glutamic acid, —COOH), cited from earlier work; for (∂ΔG/∂α) slope: from Hill plot; for ΔGgp (pKa shift): unperturbed pKa taken as 4.0

Substance | Tt [4] | ΔG°HA(GχGVP) ([3]; DSC) | further results
(GFGFPGEGFPGFGFPGFGFPGEGFPGFGFP)n (GFGFPGEGFPGFGFP) [ECMP2E/10F] | – | – | pK of the carboxylate [1]: ~6.2; ΔGap [1]: 3.0 kcal/mol-E; ΔpKa [1]: 2.2; duration of zero order release [2]: 70 days; zero order release level per day [2]: 1.9 µmol
(GVGIP) [pentamer polymer with a single CH2 added to GVGVP] | – | – | ΔGHA due to the addition of a single CH2 ([3]; DSC, difference of ΔHt(GVGVP) and ΔHt(GVGIP)): −1.5 kcal/mol-pentamer
Asn [N: Asn] | 50 °C | −0.05 kcal/mol-pentamer | –
Asp(COOH) [D°: Asp(COOH)] | 40 °C | −0.40 kcal/mol-pentamer | –
Asp(COO−) [D−: Asp(COO−)] | 170 (Tt) ° C. | – | ΔG°HA(GχGVP) (from graph) [3]: ≈+3.4 (from graph) kcal/mol-pentamer
Cys [C: Cys] | 30 (Tt) ° C. | – | ΔG°HA(GχGVP) (from graph) [3]: −1.90 (from graph) kcal/mol-pentamer
Gln [Q: Gln] | 70 °C | +0.75 kcal/mol-pentamer | –
Glu(COOH) [E°: Glu(COOH)] | 20 °C | −1.30 kcal/mol-pentamer | Tt (data within parentheses) [4]: 2 °C; ΔG°HA(GχGVP) (data within parentheses) [3]: −1.50 kcal/mol-pentamer
Gly [G: Gly] | 55 °C | 0.00 kcal/mol-pentamer | –
His+ [H+: His+] | 30 (Tt) ° C. | – | ΔG°HA(GχGVP) (from graph) [3]: −1.90 (from graph) kcal/mol-pentamer
His° [H°: His°] | −10 (Tt) ° C. | – | ΔG°HA(GχGVP) (from graph) [3]: −4.80 (from graph) kcal/mol-pentamer
Ile [I: Ile] | 10 °C | −3.65 kcal/mol-pentamer | –
Lys(NH2) [K°: Lys(NH2)] | 40 °C | −0.05 kcal/mol-pentamer | Tt (data within parentheses) [4]: 38 °C; ΔG°HA(GχGVP) (data within parentheses) [3]: −0.60 kcal/mol-pentamer
Met [M: Met] | 15 °C | −1.50 kcal/mol-pentamer | –
N-methyl-6-OH 1,4,5,6-tetrahydronicotinamide [Lys (6-OH tetrahydro NMeN)] | – | – | Tt linearly extrapolated to fX = 1 ([4]; poly[fV(VPGVG),fX(VPGXG)], 5.0 mg/ml polymer, 0.1M potassium bicarbonate pH 9.5, 0.1M KCl): 15 °C; ΔG°HA from FIG. 13 ([3]; gross estimates from Tt and curve, 5.0 mg/ml polymer, 0.1M potassium bicarbonate pH 9.5, 0.1M KCl): -3.5 kcal/mol
Phe [F: Phe] | −45 °C | −6.15 kcal/mol-pentamer | –
Pro [P: Pro] | 40 °C | −1.10 kcal/mol-pentamer | –
SEQ ID NO:12: chemically-synthesized, negatively-charged polymer of FIG. 3, top sequence, least hydrophobic (GVGFPGEGFPGVGVP) | – | – | ΔGap [1]: 1.2 kcal/mol-E; ΔpKa [1]: 0.9; duration of zero order release [2]: 25 days; zero order release level per day [2]: 4.7 µmol
SEQ ID NO:13: chemically-synthesized, negatively-charged polymer of FIG. 3, middle sequence (GEGVPGVGVPGVGFPGFGFPGVGVPGVGVP) | – | – | ΔGap [1]: 1.8 kcal/mol-E; ΔpKa [1]: 1.3; duration of zero order release [2]: 30 days; zero order release level per day [2]: 2.7 µmol
Ser [S: Ser] | 60 °C | +0.55 kcal/mol-pentamer | –
Thr [T: Thr] | 60 °C | −0.60 kcal/mol-pentamer | –
Trp [W: Trp] | −105 °C | −7.00 kcal/mol-pentamer | –
Tyr [Y: Tyr] | −75 °C | −5.85 kcal/mol-pentamer | –
Tyr(ϕ-O−) [Y−: Tyr(ϕ-O−)] | 140 °C | +1.95 kcal/mol-pentamer | –
Val [V: Val] | 26 °C | −2.50 kcal/mol-pentamer | –
[GVGVP GVGFP GΦGFP GVGVP GVGFP GFGFP]n(GVGVP) (GVGVPGVGFPGGFPGVGVPGVGFPGFGFPGVGVP) [E/5F] | – | – | (∂ΔG/∂α) slope [5]: 3.0 kcal/mol; ΔGgp (pKa shift) [5]: 3.1 kcal/mol
[GVGVP GVGFP GΦGFP GVGVP GVGFP GVGFP]n(GVGVP) (GVGVPGVGFPGGFPGVGVPGVGFPGVGFPGVGVP) [E/4F] | – | – | (∂ΔG/∂α) slope [5]: 2.2 kcal/mol; ΔGgp (pKa shift) [5]: 2.2 kcal/mol
[GVGVP GVGFP GΦGFP GVGVP GVGVP GVGVP]n(GVGVP) (GVGVPGVGFPGGFPGVGVPGVGVPGVGVPGVGVP) [E/2F] | – | – | (∂ΔG/∂α) slope [5]: 1.3 kcal/mol; ΔGgp (pKa shift) [5]: 1.0 kcal/mol
[GVGVP GVGVP GΦGVP GVGVP GVGFP GFGFP]n(GVGVP) (GVGVPGVGVPGGVPGVGVPGVGFPGFGFPGVGVP) [E/3F] | – | – | (∂ΔG/∂α) slope [5]: 1.7 kcal/mol; ΔGgp (pKa shift) [5]: 1.6 kcal/mol
[GVGVP GVGVP GΦGVP GVGVP GVGVP GVGVP]n(GVGVP) (GVGVPGVGVPGGVPGVGVPGVGVPGVGVPGVGVP) [E/0F] | – | – | (∂ΔG/∂α) slope [5]: 1.1 kcal/mol; ΔGgp (pKa shift) [5]: 0.7 kcal/mol
